Assays:
PA-Nter (SEQ ID NO: 22) = PA-Nter (SEQ ID NO: 22) (Influenza A virus, UniProt P31343, G154E); type: binding, Influenza A virus A/Victoria/3/1975 (H3N2)
[1] = molecular target: PA-Nter (SEQ ID NO: 22) endonuclease (Influenza A virus, UniProt P31343, G154E); type: biochemical, Influenza A virus A/Victoria/3/1975 (H3N2)

## manganese ions
PA-Nter (SEQ ID NO: 22)
  apparent melting temperature: 57 °C

## O=C(O)C(=O)CC(=O)c1ccccc1 [DPBA, 2,4-Dioxo-4-phenylbutanoic acid]
[1]
  inhibition of endonuclease activity on both RNA and DNA: inhibited in a dose dependent manner
PA-Nter (SEQ ID NO: 22)
  apparent melting temperature: 65 °C
  effect on thermal stability of metal-free enzyme: no effect
  thermal stability of PA-Nter in the presence of MnCl2: further stabilizes

## magnesium ions
PA-Nter (SEQ ID NO: 22)
  increase in thermal stability upon addition of divalent cation: to a lesser extent

## calcium
PA-Nter (SEQ ID NO: 22)
  increase in thermal stability upon addition of divalent cation: to a lesser extent

Reference: patent US9890368B2, “Polypeptide fragments comprising endonuclease activity and their use” (priority 2008, dated 2018)
